# According to US6489137B2, “Detection of loss of the wild-type huBUB1 gene” (Chiron Corporation, priority 1997, dated 2002):
# Target: T1, huBUB1 kinase (Homo sapiens, UniProt O43683)
# T1 construct: Plasmid p385-1, encoding full-length huBUB1 in the vector pCR3.1 (Invitrogen), was employed as a backbone for further constructs; made in house; host or cells: cell-free coupled in vitro transcription/translation (T7 TnT kit, Promega) from pCR3.1 plasmids, anti-FLAG immunopurified
# Assay: in vitro huBUB1 kinase (autophosphorylation) assay
# Format: biochemical
# Settings: for relative huBUB1 autophosphorylation: immunopurified FLAG-BUB3/BUB1, labeled-ATP kinase reaction, SDS-PAGE, phosphorimager; for inhibition of huBUB1 kinase (result in words): tested at 5, 10 and 20 μM
# Source text: A set of known compounds was screened using an in vitro huBUB1 kinase assay. Tested compounds included olomucine, myrecetin, hypericin, iodotubercidin, ellagic acid, emodin, and staurosporine. The relative specificity of these compounds towards known kinases has been reported in the literature. Some of these compounds can be classified as relatively specific kinase inhibitors (e.g., olomucine, myrecetin, ellagic acid), while other inhibitors are known to inhibit a broad range of kinase (e.g., hypericin, iodotubercidin, staurosporine).
# Unlabeled FLAG-BUB3/BUB1 in vitro translation products were immunopurified with anti-FLAG. […] kinase reactions were performed in the presence and absence of inhibitors in 20 μl reaction volumes. Labeled reaction products were separated on SDS-PAGE gels, and relative huBUB1 autophosphorylation was determined with the aid of a phosphorimager. An initial screen was conducted using 10 and 20 μM of each compound. Compounds with a positive result in this screen were then retested at 5, 10 and 20 μM (Table 1).
# T1 sequence (O43683 whole entry): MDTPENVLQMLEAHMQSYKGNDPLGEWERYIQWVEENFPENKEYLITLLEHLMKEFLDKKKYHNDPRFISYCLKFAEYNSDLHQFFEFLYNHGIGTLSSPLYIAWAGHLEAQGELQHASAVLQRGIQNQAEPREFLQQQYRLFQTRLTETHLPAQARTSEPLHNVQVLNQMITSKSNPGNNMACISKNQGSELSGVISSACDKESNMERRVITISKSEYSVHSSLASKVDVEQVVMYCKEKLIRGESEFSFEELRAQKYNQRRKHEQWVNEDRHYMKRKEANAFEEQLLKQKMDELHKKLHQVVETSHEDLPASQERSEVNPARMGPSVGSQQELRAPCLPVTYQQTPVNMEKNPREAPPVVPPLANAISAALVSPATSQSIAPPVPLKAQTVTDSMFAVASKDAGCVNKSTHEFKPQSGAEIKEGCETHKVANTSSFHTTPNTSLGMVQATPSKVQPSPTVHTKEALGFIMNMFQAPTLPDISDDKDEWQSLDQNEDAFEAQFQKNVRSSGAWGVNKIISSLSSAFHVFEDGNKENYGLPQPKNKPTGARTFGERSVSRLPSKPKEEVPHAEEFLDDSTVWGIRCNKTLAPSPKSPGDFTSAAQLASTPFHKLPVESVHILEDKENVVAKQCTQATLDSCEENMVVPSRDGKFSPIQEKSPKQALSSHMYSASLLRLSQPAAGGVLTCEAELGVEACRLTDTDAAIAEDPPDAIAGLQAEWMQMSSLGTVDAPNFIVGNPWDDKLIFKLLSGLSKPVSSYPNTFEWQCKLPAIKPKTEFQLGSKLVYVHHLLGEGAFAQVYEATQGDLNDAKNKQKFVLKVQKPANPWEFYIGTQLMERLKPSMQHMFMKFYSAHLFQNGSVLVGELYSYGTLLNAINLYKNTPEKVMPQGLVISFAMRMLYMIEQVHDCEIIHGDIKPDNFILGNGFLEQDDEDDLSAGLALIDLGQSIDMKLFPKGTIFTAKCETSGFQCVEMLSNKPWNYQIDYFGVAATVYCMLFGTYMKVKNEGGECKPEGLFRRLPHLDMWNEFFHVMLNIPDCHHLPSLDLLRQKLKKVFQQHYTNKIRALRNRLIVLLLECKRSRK
# T1 sequence (O43684 whole entry partner): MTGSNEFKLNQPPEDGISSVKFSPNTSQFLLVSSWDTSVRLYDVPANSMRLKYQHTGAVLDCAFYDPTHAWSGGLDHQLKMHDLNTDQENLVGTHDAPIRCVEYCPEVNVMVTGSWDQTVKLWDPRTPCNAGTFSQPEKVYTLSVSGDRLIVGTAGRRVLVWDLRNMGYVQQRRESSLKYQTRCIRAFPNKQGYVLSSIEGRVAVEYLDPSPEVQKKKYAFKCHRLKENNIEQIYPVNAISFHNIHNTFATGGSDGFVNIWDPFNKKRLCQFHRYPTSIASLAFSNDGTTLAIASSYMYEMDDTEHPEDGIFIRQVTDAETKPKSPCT
smiles,measurement,setting,value
Cc1cc(O)c2c(=O)c3c(O)cc(O)c4c5c(O)cc(O)c6c(=O)c7c(O)cc(C)c8c1c2c(c34)c(c78)c65 [hypericin],relative huBUB1 autophosphorylation,5 μM compound,0.63 +/− 0.07
same,relative huBUB1 autophosphorylation,10 μM compound,0.47 +/− 0.13
same,relative huBUB1 autophosphorylation,20 μM compound,0.36 +/− 0.05
Nc1ncnc2c1c(I)cn2[C@@H]1O[C@H](CO)[C@@H](O)[C@H]1O [iodotubercidin],relative huBUB1 autophosphorylation,5 μM compound,0.56 +/− 0.08
same,relative huBUB1 autophosphorylation,10 μM compound,0.41 +/− 0.09
same,relative huBUB1 autophosphorylation,20 μM compound,0.32 +/− 0.05
same,inhibition of huBUB1 kinase (result in words),,clearly inhibited
CN[C@@H]1C[C@H]2O[C@@](C)([C@@H]1OC)n1c3ccccc3c3c4c(c5c6ccccc6n2c5c31)C(=O)NC4 [staurosporine],relative huBUB1 autophosphorylation,5 μM compound,0.45 +/− 0.11
same,relative huBUB1 autophosphorylation,10 μM compound,0.49 +/− 0.11
same,relative huBUB1 autophosphorylation,20 μM compound,0.26 +/− 0.04
same,inhibition of huBUB1 kinase (result in words),,clearly inhibited
